≈ marks a conversion by molar mass, not a printed value. Where two headings read alike, the source gives them in different places.
What was measured:
[1] = test system: ATCC 25922-lexA(S119A); experiment: mouse thigh infection treated with ciprofloxacin, resistant colonies; conditions: mice given approximately cytostatic ciprofloxacin dose
[2] = test system: E. coli K-12 (MG1655) isogenic loss of function strains; experiment: ciprofloxacin MIC of isogenic strains (Table 5); conditions: Escherichia coli
[3] = test system: ATCC 25922-ΔlacZ(gyrA(S83L)); experiment: second step mutation rate to 650 ng/ml ciprofloxacin resistance; format: cell-based, E. coli; conditions: wild-type strain already resistant to 35 ng/ml, evolving resistance to 650 ng/ml ciprofloxacin
Text: (§3) Error bars represent standard deviation from two independent rate determinations.

[4] = test system: ATCC 25922-lexA(S119A)(gyrA(S83L)); experiment: as above; format: cell-based, E. coli; conditions: lexA(S119A) strain already resistant to 35 ng/ml, evolving resistance to 650 ng/ml ciprofloxacin
Text: as §3

[5] = test system: ATCC 25922 lexA(S119A); experiment: in vitro susceptibility testing with rifampin, Example 8; format: cell-based, E. coli
Protocol: (§1) In vitro susceptibility testing was performed with rifampin on the parent strains and on cells isolated from the agar plates after therapy.

[6] = test system: E. coli ATCC 25922-ΔlacZ; experiment: as above; format: cell-based; conditions: Escherichia coli
Protocol: as §1

[7] = test system: E. coli ATCC 25922-ΔlacZ; experiment: neutropenic Swiss ICR mouse thigh infection treated with rifampin, CFU determination; conditions: lacZ Strain; rifampin 100 mg/kg subcutaneous every 12 hours; 96 h
Protocol: Two hours after infection the mice received rifampin at 100 mg/kg (subcutaneous) every 12 hours. The mice continued the rifampin regimen until they were sacrificed. Two mice were sacrificed at 0, 24, 48, 72 and 96 hours. The thighs were removed, homogenized, 1:10 serial diluted, and plated for CFU determination. Homogenates were plated on MH agar (NHA) to quantify the entire population of organisms and on rifampin containing MHA plates (16 mg/L) to quantify the population of organisms with a rifampin resistance phenotype.

[8] = test system: LacZ strain (ATCC 25922-ΔlacZ); experiment: in vitro susceptibility testing (NCCLS method), rifampin MIC; format: cell-based, E. coli; conditions: Escherichia coli
Protocol: (§2) In vitro susceptibility testing of strains was preformed using the NCCLS method. (See National Committee for Clinical Laboratory Standards. 1997. Reference method for broth dilution anti-fungal susceptibility testing of yeasts. Approved standard M27-A. National Committee for Clinical Laboratory Standards, Wayne, Pa.) Eight colonies from each group at the 72 hr time point from MHA plate with and without rifampin were obtained. Minimum inhibitory concentrations (“MICs”) were performed in duplicate on three occasions on each colony. […] Minimum inhibitory concentrations of both the LexA and LacZ strains pre-treatment=8.0 mg/L.

[9] = test system: LexA strain (ATCC 25922 lexA(S119A)); experiment: as above; format: cell-based, E. coli; conditions: Escherichia coli
Protocol: as §2

[10] = test system: E. coli MG1655; experiment: pre-exposure to rifampicin, then plating on 35 ng/mL ciprofloxacin; format: cell-based
[11] = test system: ATCC 25922 lexA(S119A); experiment: neutropenic CD1 mouse thigh infection treated with rifampin, colonies on rifampin plates; conditions: rifampin 100 mg/kg twice daily subcutaneous; plates 128 mg/L; over the 72 h study period
Protocol: (§4) Two hours after infection mice were treated with rifampin 100 mg/kg twice daily via the subcutaneous route. Groups of two mice were sacrificed at the started of therapy (zero hour) and every 24 h for a period of 72 h. After euthanasia, thigh were removed, homogenized, diluted, and plated for CFU enumeration (lower limit of detection is 2 log cfu/thigh). Homogenate dilutions were plated on MHA with and without rifampin (128 mg/L).

[12] = test system: E. coli ATCC 25922-ΔlacZ; experiment: as above; conditions: rifampin 100 mg/kg twice daily subcutaneous; plates 128 mg/L; after 72 h of therapy
Protocol: as §4

[13] = target: LexA (Escherichia coli, UniProt P0A7C2); conditions: peptide at 1.5 mM; LexA 5 uM, 0.25 uM activated RecA, 37 degrees, 30 min (FIG. 20)
Protocol: Cleavage of LexA was initiated by the addition of 0.25 uM activated RecA. The mixture was incubated at 37 degrees for 30 min. Aliquots were removed and quenched in aqueous acetonitrile containing 0.1% TFA.
The cleavage of LexA protein was monitored by HPLC using a gradient of 30 to 90% buffer B (9.9% H2O, 90% CH3CN, 0.1% TFA) in buffer A(98% H2O, 1.9% CH3CN, 0.1% TFA) and recording absorbance at 214 nm. […] Error bars represent one standard deviation of three separate experiments.

[14] = ATCC25922, colonies from the 72 hr time point of rifampin therapy in mice, read-out: Minimum Inhibitory Concentrations, Post
[15] = ATCC25922, pre-treatment, read-out: Minimum Inhibitory Concentrations, Pre

Sequence of LexA (P0A7C2 whole entry): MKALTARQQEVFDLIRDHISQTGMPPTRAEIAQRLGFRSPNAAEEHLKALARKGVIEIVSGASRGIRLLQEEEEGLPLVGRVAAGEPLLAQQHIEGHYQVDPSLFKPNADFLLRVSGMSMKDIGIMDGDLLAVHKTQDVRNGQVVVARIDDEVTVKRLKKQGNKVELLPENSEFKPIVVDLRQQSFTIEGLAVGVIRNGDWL

Compound: O=C(O)c1cn(C2CC2)c2cc(N3CCNCC3)c(F)cc2c1=O [ciprofloxacin]
- Colonies isolated on plates containing ciprofloxacin ([1]; day 1 post infection, plates 20 ng/mL): 3
- Colonies isolated on plates containing ciprofloxacin ([1]; day 1 post infection, plates 80 ng/mL): 1
- Colonies isolated on plates containing ciprofloxacin ([1]; day 2 post infection, plates 20 ng/mL): 2
- Colonies isolated on plates containing ciprofloxacin ([1]; day 2 post infection, plates 80 ng/mL): 0
- MIC ([2]; MG1655, read-out: ciprofloxacin MIC, strain lexA (S119A), WT gyrA): 0.03 µg/mL
- MIC ([2]; MG1655, read-out: ciprofloxacin MIC, strain lexA (S119A), gyrA S83L): 0.35 µg/mL
- MIC ([2]; MG1655, read-out: ciprofloxacin MIC, strain lexA (S119A), gyrA S83Δ): 0.25 µg/mL
- MIC ([2]; MG1655, read-out: ciprofloxacin MIC, strain ΔdinB, WT gyrA): 0.035 µg/mL
- MIC ([2]; MG1655, read-out: ciprofloxacin MIC, strain ΔdinB, gyrA S83L): 0.45 µg/mL
- MIC ([2]; MG1655, read-out: ciprofloxacin MIC, strain ΔdinB, gyrA S83Δ): 0.25 µg/mL
- MIC ([2]; MG1655, read-out: ciprofloxacin MIC, strain ΔdinB, ΔumuDC, WT gyrA): 0.035 µg/mL
- MIC ([2]; MG1655, read-out: ciprofloxacin MIC, strain ΔdinB, ΔumuDC, gyrA S83L): 0.45 µg/mL
- MIC ([2]; MG1655, read-out: ciprofloxacin MIC, strain ΔdinB, ΔumuDC, gyrA S83Δ): 0.25 µg/mL
- MIC ([2]; MG1655, read-out: ciprofloxacin MIC, strain ΔlacZ, WT gyrA): 0.035 µg/mL
- MIC ([2]; MG1655, read-out: ciprofloxacin MIC, strain ΔlacZ, gyrA S83L): 0.45 µg/mL
- MIC ([2]; MG1655, read-out: ciprofloxacin MIC, strain ΔlacZ, gyrA S83Δ): 0.25 µg/mL
- MIC ([2]; MG1655, read-out: ciprofloxacin MIC, strain ΔpolB, WT gyrA): 0.03 µg/mL
- MIC ([2]; MG1655, read-out: ciprofloxacin MIC, strain ΔpolB, gyrA S83L): 0.45 µg/mL
- MIC ([2]; MG1655, read-out: ciprofloxacin MIC, strain ΔpolB, gyrA S83Δ): 0.25 µg/mL
- MIC ([2]; MG1655, read-out: ciprofloxacin MIC, strain ΔpolB, ΔdinB, WT gyrA): 0.025 µg/mL
- MIC ([2]; MG1655, read-out: ciprofloxacin MIC, strain ΔpolB, ΔdinB, gyrA S83L): 0.45 µg/mL
- MIC ([2]; MG1655, read-out: ciprofloxacin MIC, strain ΔpolB, ΔdinB, gyrA S83Δ): 0.25 µg/mL
- MIC ([2]; MG1655, read-out: ciprofloxacin MIC, strain ΔpolB, ΔdinB, ΔumuDC, WT gyrA): 0.025 µg/mL
- MIC ([2]; MG1655, read-out: ciprofloxacin MIC, strain ΔpolB, ΔdinB, ΔumuDC, gyrA S83L): 0.45 µg/mL
- MIC ([2]; MG1655, read-out: ciprofloxacin MIC, strain ΔpolB, ΔdinB, ΔumuDC, gyrA S83Δ): 0.25 µg/mL
- MIC ([2]; MG1655, read-out: ciprofloxacin MIC, strain ΔpolB, ΔumuDC, WT gyrA): 0.025 µg/mL
- MIC ([2]; MG1655, read-out: ciprofloxacin MIC, strain ΔpolB, ΔumuDC, gyrA S83L): 0.45 µg/mL
- MIC ([2]; MG1655, read-out: ciprofloxacin MIC, strain ΔpolB, ΔumuDC, gyrA S83Δ): 0.25 µg/mL
- MIC ([2]; MG1655, read-out: ciprofloxacin MIC, strain ΔrecD, WT gyrA): 0.035 µg/mL
- MIC ([2]; MG1655, read-out: ciprofloxacin MIC, strain ΔrecD, gyrA S83L): 0.35 µg/mL
- MIC ([2]; MG1655, read-out: ciprofloxacin MIC, strain ΔrecD, gyrA S83Δ): 0.25 µg/mL
- MIC ([2]; MG1655, read-out: ciprofloxacin MIC, strain ΔumuDC, WT gyrA): 0.035 µg/mL
- MIC ([2]; MG1655, read-out: ciprofloxacin MIC, strain ΔumuDC, gyrA S83L): 0.45 µg/mL
- MIC ([2]; MG1655, read-out: ciprofloxacin MIC, strain ΔumuDC, gyrA S83Δ): 0.25 µg/mL
- 'second step' mutation rate [3]: 1.9 (±0.21)×10^−4 mutants/(cell day)
- 'second step' mutation rate [4]: 5.5 (±4.9)×10^−7 mutants/(cell day)

Compound: CO[C@H]1/C=C/O[C@@]2(C)Oc3c(C)c(O)c4c(O)c(c(/C=N/N5CCN(C)CC5)c(O)c4c3C2=O)NC(=O)/C(C)=C\C=C\[C@H](C)[C@H](O)[C@@H](C)[C@@H](O)[C@@H](C)[C@H](OC(C)=O)[C@@H]1C [rifampin]
- MIC ([5]; Escherichia coli, ATCC25922, parent strain, read-out: MIC): 8 µg/mL (≈ 9.72 µM)
- MIC ([5]; colonies after therapy): 8.0 µg/mL (≈ 9.72 µM)
- MIC ([6]; ATCC25922, colonies isolated from the rifampin containing plates after therapy): > 256 µg/mL
- MIC ([6]; ATCC25922, parent strain): 8 µg/mL (≈ 9.72 µM)
- CFU/Thigh, Media (outcome of mice) [7]: mice dead.
- MIC [8, 14]: > 16400 µg/mL
- MIC [8, 15]: 8 µg/mL (≈ 9.72 µM)
- MIC [9, 14]: 16 to 32 µg/mL (≈ 19.4 to 38.9 µM)
- MIC [9, 15]: 8 µg/mL (≈ 9.72 µM)
- effect on number of ciprofloxacin resistant colonies ([10]; 4 mg/mL rifampicin in PBS, four days, 37° C., plated on 35 ng/mL ciprofloxacin): no effect
- effect on number of ciprofloxacin resistant cells ([10]; 12 mg/mL rifampicin in PBS, four days, 37° C., plated on 35 ng/mL ciprofloxacin): dramatic increase
- effect on number of ciprofloxacin resistant cells ([10]; 36 mg/mL rifampicin in PBS, four days, 37° C., plated on 35 ng/mL ciprofloxacin): dramatic increase
- effect on number of ciprofloxacin resistant cells in umuDC deletion strain ([10]; umuDC deletion stain, 12 or 36 mg/mL rifampicin): essentially completely lost
- colonies on rifampin containing plates [11]: no colonies grew
- colonies on rifampin containing plates [12]: large number

Compound: VAAGEPL [peptide 3]
- inhibition of LexA's autocleavage [13]: inhibition

Source: US7455840B2, “Compositions and methods to reduce mutagenesis” (priority 2003, dated 2008)
